Data: ChEMBL document CHEMBL1131457, “cis-[PtCl2(4,7-H-5-methyl-7-oxo[1,2,4]triazolo[1,5-a]pyrimidine)2]: a sterically restrictive new cisplatin analogue. Reaction kinetics with model nucleobases, DNA interaction studies, antitumor activity, and structure-activity relationships” (J Med Chem, 1998)

Legend:
Assay type in all cases: functional, cell-based
MCF7 [1] = test: Dose at which compound exhibits cytotoxicity in the MCF-7 cell line.; settings: Homo sapiens
MCF7 [2] = test: Cytotoxic effect (tumor cell growth inhibition) on the human cell line MCF-7 breast carcinoma at a dose of […]
A121 [3] = test: Cytotoxic effect (tumor cell growth inhibition) on the human cell line A121 ovarian carcinoma at the dose of […]
A121 [4] = test: Dose at which compound exhibits cytotoxicity in the A121 ovarian carcinoma cell line.; settings: Homo sapiens
A121 [5] = test: Cytotoxic effect (tumor cell growth inhibition) on the human cell line A121 ovarian carcinoma at the dose of […]

Work on cis-[PtCl2(Hmtpo-N3)2].2H2O yielded an ID50 (MCF7 [1]) of 33.4 µM, a Cytotoxic effect (MCF7 [2]) of 54.8% and a Cytotoxic effect (A121 [3]) of 84%. It also gave an ID50 (A121 [4]) of 14.3 µM and a Cytotoxic effect (A121 [5]) of 53%.
